Measurements taken from patent US12144864B2, “Tubulysins and protein-tubulysin conjugates” (Regeneron Pharmaceuticals, Inc., priority 2018, dated 2024).
pIC50: −log10 of the molar value. “And” between values parts separate entries of the source, which are not always exact repeats. Equal values may be shown once. Read-outs that look alike come from different tables or passages of the source. Non-standard residues stand in square brackets, D forms with d. Residues, ends and D or L forms follow the SMILES beside them. *: point of attachment. Dolaproine = CO[C@@H]([C@@H]1CCCN1)[C@@H](C)C(=O)O; Dil = CC[C@H](C)[C@H](NC)[C@@H](CC(=O)O)OC; X1 = C[C@@H](N*)[C@@H](O)c1ccccc1; NMeV = CN[C@H](C(=O)O)C(C)C

How the values were obtained:
C4-2 cells [1] = experiment: Cell-based killing assay of payloads (CellTiter-Glo), C4-2 cells; design: species or system human; details: 5-day incubation; for pIC50: average ± SD where replicates; for C4-2 % Kill: at maximum concentration tested (100 − % viable cells)
Outline: (§1)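 Cells plated at 4000/well in line-specific complete medium, grown overnight, then exposed to 1:3 serial dilutions of payload (100 nM to […]) for 5 days. ATP-based CellTiter-Glo luminescence read; IC50 from four-parameter logistic 10-point fit, and % kill at top concentration as 100 − % viable.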

T47D cells = experiment: Cell-based killing assay of payloads (CellTiter-Glo), T47D cells; design: species or system human; details: 5-day incubation
Outline: as §1

HEK293 cells = experiment: Cell-based killing assay of payloads (CellTiter-Glo), HEK293 cells; design: species or system human; details: 5-day incubation
Outline: as §1

HCT15 cells = experiment: cells; format: cell-based, human; details: for HCT-15 + verapamil % Kill / pIC50 / HCT-15 % Kill: HCT15 cells; for HCT-15 + verapamil % Kill / HCT-15 % Kill: maximum % cell killing
Outline: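 HCT15 colorectal carcinoma cells, 1000 per well in RPMI/10% FBS, with or without 5 ug/mL verapamil, exposed to 1:3 serially diluted payloads for 5 days at 37 °C. Viability measured by CellTiter-Glo ATP luminescence; IC50 from four-parameter logistic fit of a 10-point curve, % kill at top concentration.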

HL60/MX2 cells = experiment: Cytotoxicity in panel of MDR cell lines, HL60/MX2 (72 h and 144 h); format: cell-based, human
Outline: (§2)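 Four-parameter logistic fitting of 10-point CellTiter-Glo curves gives the IC50, expressed molar. Cells, including resistant H69AR, MES-SA/MX2 and HL60/MX2 plus HCT-15, are plated at 1000/well and exposed to payloads for 72 h and 144 h.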

MES-SA/MX2 cells = experiment: Cytotoxicity in panel of MDR cell lines, MES-SA/MX2 (72 h and 144 h); format: cell-based, human
Outline: as §2

HCT-15 cells = experiment: Cytotoxicity in panel of MDR cell lines, HCT-15 (72 h and 144 h); format: cell-based, human
Outline: as §2

H69AR cells = experiment: Cytotoxicity in panel of MDR cell lines, H69AR (72 h and 144 h); format: cell-based, human
Outline: as §2

HCT15/PRLR cells = experiment: Cytotoxicity of anti-PRLR tubulysin ADCs and payloads in HCT15/PRLR cells with or without Verapamil; format: cell-based, human; details: for IC50: Homo sapiens, HCT-15
Protocol: (§3) To test the ability of the disclosed tubulysin payloads to kill human cell lines, an in vitro cytotoxicity assay was performed. In vitro cytotoxicity of the disclosed payloads, as well as reference compounds, were evaluated using the CellTiter-Glo Assay Kit (Promega, Cat #G7573), in which the quantity of ATP present is used to determine the number of viable cells in culture. For the assay, C4-2, HEK293, or T47D cells were seeded at 4000 cells/well on Nunclon white 96-well plates in complete growth medium (DME high glucose:Ham's F12 at 4:1, 10% FBS, 100 units/ml Penicillin, 100 ug/ml streptomycin, 53 ug/ml glutatmine, 10 ug/ml insulin, 220 ng/ml biotin, 12.5 pg/ml T3, 12.5 ug/ml Adenine, 4 ug/ml transferrin for C42 cells; DME high glucose, 10% FBS, 100 units/ml Penicillin, 100 ug/ml streptomycin, 53 ug/ml glutatmine for HEK293; RPMI, 10% FBS, 100 units/ml Penicillin, 100 ug/ml streptomycin, 53 ug/ml glutatmine, 10 ug/ml insulin, 10 mM HEPEs, 200 nM Sodium Pyruvate for T47D cells) and grown overnight at 37° C. in 5% CO2. For cell viability curves, 1:3 serially diluted payloads were added to the cells at final concentrations ranging from 100 nM to […], including a no treatment control group, and were then incubated for 5 days. After the 5-day incubation, cells were incubated at room temperature with 100 μL of CellTiter-Glo reagents for 10 minutes. Relative luminescence units (RLU) were determined on a Victor plate reader (PerkinElmer). The IC50 values were determined from a four-parameter logistic equation over a 10-point response curve (GraphPad Prism). All IC50 values are expressed in molar (M) concentration. The percent cell killing (% kill) at the maximum concentration tested was estimated from the following formula (100−% viable cells). Averages±standard deviation (SD) are included where replicate experiments were performed.
Bioassays were developed to assess the efficacy of an anti-PRLR antibody conjugated with the disclosed tubulysin payloads and reference payloads. It was developed to assess the activity of tubulysin payloads after internalization of an anti-PRLR-tubulysin ADC into cells, release of the payload, and subsequent cytotoxicity. For this assay, a HCT15 line was engineered to express human full length PRLR (accession #NP_000940.1). The resulting stable cell line is referred to herein as HCT15/PRLR. In vitro cytotoxicity of the disclosed payloads, reference compounds, and tested ADCs were evaluated similarly as described in this example using HCT15/PRLR cells with or without […] of Verapamil diluted in normal culture medium. The compounds were tested at concentrations starting at 100 nM with 3-fold serial dilution. All IC50 values are expressed in nM concentration and the percent cell killing (% kill) at the maximum concentration tested was estimated from the following formula (100−% viable cells).

C4-2 cells [2] = experiment: Cytotoxicity of anti-STEAP2 ADCs, payloads and reference compounds in C4-2 cells; format: cell-based, human; details: for pIC50: top concentration 100 nM, 3-fold serial dilution; for % kill: at maximum concentration tested
Protocol: as §3
To further test the ability of the disclosed tubulysin payloads, reference compounds, and antibody drug conjugates using these payloads, a cytotoxicity assay was performed using C4-2 cells as described in this example (see above). For these studies, anti-STEAP2 antibodies were conjugated to select tubulysins payloads, and the compounds were tested at concentrations starting at 100 nM with 3-fold serial dilution. All IC50 values are expressed in nM concentration and the percent cell killing at the maximum concentration tested was estimated from the following formula (100−% viable cells).

[3] = at maximum concentration tested
[4] = with 5 ug/mL Verapamil, read-out: HCT-15 + verapamil IC50

For C#CCCCCN(C(=O)[C@@H](NC(=O)[C@H]1CCCCN1C)[C@@H](C)CC)[C@H](C[C@@H](OC(C)=O)c1nc(C(=O)N[C@@H](Cc2ccc(N)cc2)CC(C)(C)C(=O)O)cs1)C(C)C [IVd, (4S)-4-({2-[(1R,3R)-1-(Acetyloxy)-3-[(2S,3S)—N-(hex-5-yn-1-yl)-3-methyl-2-{[(2R)-1-methylpiperidin-2-yl]formamido}pentanamido]-4-methylpentyl]-1,3-thiazol-4-yl}formamido)-5-(4-aminophenyl)-2,2-dimethylpentanoic acid], the pIC50 (C4-2 cells [1]; Homo sapiens, C4-2, 120 h) was 10.79, the “C4-2 % Kill” value (C4-2 cells [1]) was 93.7 ± 1.8% and the pIC50 (T47D cells; Homo sapiens, T47D, 120 h) was 10.46. The “T47D % Kill” value (T47D cells; [3]) was 84.5%, the pIC50 (HEK293 cells; Homo sapiens, HEK293, 120 h) was 10.24 and the “HEK293 % Kill” value (HEK293 cells; [3]) was 85.4%. The “HCT-15 + verapamil % Kill” value (HCT15 cells; with 5 ug/mL Verapamil) was 97.7 ± 1.8%, the pIC50 (HCT15 cells; [4]) was 10.39 and the “HCT-15 % Kill” value (HCT15 cells; without Verapamil) was 98.2 ± 0.5%. The pIC50 (HCT15 cells; Homo sapiens, HCT-15, without Verapamil, read-out: HCT-15 IC50) was 10.24, the “HL60/MX2 % Kill 72 h” value (HL60/MX2 cells; 72 h incubation) was 98.6% and the “HL60/MX2 % Kill 144 h” value (HL60/MX2 cells; 144 h incubation) was 99.9%. For the same molecule, the pIC50 (HL60/MX2 cells; Homo sapiens, 72 h incubation, read-out: HL60/MX2 IC50 72 h) was > 10.82, the pIC50 (HL60/MX2 cells; Homo sapiens, 144 h incubation, read-out: HL60/MX2 IC50 144 h) was > 10.82 and the “MES-SA/MX2 % Kill 72 h” value (MES-SA/MX2 cells; 72 h incubation) was 99.5%. For the same molecule, the “MES-SA/MX2 % Kill 144 h” value (MES-SA/MX2 cells; 144 h incubation) was 100%, the pIC50 (MES-SA/MX2 cells; Homo sapiens, 72 h incubation, read-out: MES-SA/MX2 IC50 72 h) was 10.27 and the pIC50 (MES-SA/MX2 cells; Homo sapiens, 144 h incubation, read-out: MES-SA/MX2 IC50 144 h) was 9.89. For the same molecule, the “HCT-15 % Kill 72 h” value (HCT-15 cells; 72 h incubation) was 97.6%, the “HCT-15 % Kill 144 h” value (HCT-15 cells; 144 h incubation) was 99.7% and the pIC50 (HCT-15 cells; Homo sapiens, 72 h incubation, read-out: HCT-15 IC50 72 h) was 11.05. The pIC50 (HCT-15 cells; Homo sapiens, 144 h incubation, read-out: HCT-15 IC50 144 h) was 10.53, the “H69AR % Kill 72 h” value (H69AR cells; 72 h incubation) was 96.9% and the “H69AR % Kill 144 h” value (H69AR cells; 144 h incubation) was 99.5%. The pIC50 (H69AR cells; Homo sapiens, 72 h incubation, read-out: H69AR IC50 72 h) was 10.25, the pIC50 (H69AR cells; Homo sapiens, 144 h incubation, read-out: H69AR IC50 144 h) was 9.88 and the IC50 (HCT15/PRLR cells; with Verapamil, read-out: IC50 (nM) on HCT15/PRLR w/ Verapamil) was 0.015 nM. For the same molecule, the IC50 (HCT15/PRLR cells; without Verapamil, read-out: IC50 (nM) on HCT15/PRLR w/o Verapamil) was 0.037 nM, the “% kill on HCT15/PRLR w/ Verapamil” value (HCT15/PRLR cells; with Verapamil, at maximum concentration tested) was 99% and the “% kill on HCT15/PRLR w/o Verapamil” value (HCT15/PRLR cells; without Verapamil, at maximum concentration tested) was 99%. The pIC50 (C4-2 cells [2]; Homo sapiens) was 10.66 and the “% kill” value (C4-2 cells [2]) was 99%.
For CC[C@H](C)[C@@H]([C@@H](CC(=O)N1CCC[C@H]1[C@H](OC)[C@@H](C)C(=O)N[C@H](C)[C@@H](O)c1ccccc1)OC)N(C)C(=O)[C@@H](NC(=O)[C@@H](NC)C(C)C)C(C)C [MMAE, Monomethyl auristatin E, reference compound] (H-[NMeV]V[Dil][Dolaproine]-X1), the pIC50 (C4-2 cells [1]) was 9.54, the “C4-2 % Kill” value (C4-2 cells [1]) was 93.7% and 93.7 ± 2.5% and the “HCT-15 + verapamil % Kill” value (HCT15 cells; with 5 ug/mL Verapamil) was 98.4 ± 0.5%. For the same molecule, the pIC50 (HCT15 cells; [4]) was 9.11, the “HCT-15 % Kill” value (HCT15 cells; without Verapamil) was 97.1 ± 3.7% and the pIC50 (HCT15 cells; without Verapamil, read-out: HCT-15 IC50) was 7.75. The “HCT-15 IC50/HCT-15+Verapamil IC50 ratio” value (HCT15 cells; IC50 without Verapamil divided by IC50 with Verapamil) was 23.7, the “HCT15 IC50/HCT-15 + Verapamil IC50” value (HCT15 cells; ratio of IC50 without Verapamil to IC50 with Verapamil) was 23.7 ± 12.0 and the “HL60/MX2 % Kill 72 h” value (HL60/MX2 cells; 72 h incubation) was 88.7%. The pIC50 (HL60/MX2 cells; 72 h incubation, read-out: HL60/MX2 IC50 72 h) was 9.38, the “HL60/MX2 % Kill 144 h” value (HL60/MX2 cells; 144 h incubation) was 99.6% and the pIC50 (HL60/MX2 cells; 144 h incubation, read-out: HL60/MX2 IC50 144 h) was 9.79. The “MES-SA/MX2 % Kill 72 h” value (MES-SA/MX2 cells; 72 h incubation) was 65.6%, the pIC50 (MES-SA/MX2 cells; 72 h incubation, read-out: MES-SA/MX2 IC50 72 h) was 7.43 and the “MES-SA/MX2 % Kill 144 h” value (MES-SA/MX2 cells; 144 h incubation) was 58.1%. For the same molecule, the pIC50 (MES-SA/MX2 cells; 144 h incubation, read-out: MES-SA/MX2 IC50 144 h) was 9.17, the “HCT-15 % Kill 72 h” value (HCT-15 cells; 72 h incubation) was 93.7% and the pIC50 (HCT-15 cells; 72 h incubation, read-out: HCT-15 IC50 72 h) was 7.77. The “H69AR % Kill 72 h” value (H69AR cells; 72 h incubation) was 66.8%, the pIC50 (H69AR cells; 72 h incubation, read-out: H69AR IC50 72 h) was 9.03 and the “H69AR % Kill 144 h” value (H69AR cells; 144 h incubation) was 92.7%. For the same molecule, the pIC50 (H69AR cells; 144 h incubation, read-out: H69AR IC50 144 h) was 9.17, the “% kill” value (C4-2 cells [2]) was 99% and the pIC50 (C4-2 cells [2]) was 9.66.
